Assays:
[1] = system: subjects with symptomatic Raynaud's Phenomenon (RP) secondary to Systemic Sclerosis (SSc); assay: Example 1 double-blind placebo-controlled study, ePRO diary efficacy on symptomatic RP attacks; type: in vivo, human; details: for Weekly Frequency of Symptomatic RP Attacks, Treatment comparison of change vs placebo, LS mean difference in change: ANCOVA, N = 17 per group, p 0.8498
From the text: This was a multicenter, double-blind, randomized, placebo-controlled study to provide an initial evaluation of the effect of iloprost on the symptomatic relief of RP attacks in subjects with SSc. As a pilot study, it was not powered to provide a definitive estimate of the effect of iloprost. Importantly, this study tested the feasibility of collecting the study endpoints and logistics of study operations that included, among other things, an electronic patient-reported outcomes (ePRO) diary for the evaluation of subject response to the treatment, as well as the infusion workflow for this multiday treatment. Subjects were allowed to continue receiving stable standard of care therapies for the management of symptomatic RP (e.g., calcium channel blockers, angiotensin-converting enzyme inhibitors, statins, fluoxetine, and low-dose acetylsalicylic acid) or may have participated without the use of background standard of care therapies.
The primary objective was to evaluate the efficacy of iloprost compared to placebo on the change in the weekly frequency of symptomatic Raynaud's Phenomenon (RP) attacks from baseline in subjects with symptomatic RP secondary to Systemic Sclerosis (SSc). The exploratory objectives were the following: • To evaluate the efficacy of iloprost compared to placebo on the severity of RP attack symptoms • To evaluate the efficacy of iloprost compared to placebo on the Raynaud's Condition Score • To evaluate the efficacy of iloprost compared to placebo on hand function as assessed by the Cochin Hand Function Scale (CHFS) • To evaluate the safety and tolerability of iloprost • To evaluate the efficacy of iloprost compared to placebo on symptomatic RP attack duration • To evaluate the efficacy of iloprost compared to placebo on the worst pain associated with symptomatic RP • To evaluate the efficacy of iloprost compared to placebo on the subject assessment of overall improvement in symptomatic RP • To evaluate the pharmacokinetics (PK) of iloprost in subjects with symptomatic RP secondary to SSc
The study consisted of an up to 30-day screening period during which subjects completed a daily ePRO diary to record information regarding all symptomatic RP attacks (e.g., severity of symptoms, duration, and hand function). […] The baseline ePRO diary completion period may have been extended beyond 10 days in order to accommodate the preferred Monday through Friday dosing schedule. The ePRO symptomatic RP attack data from this time period were used for the calculation of the baseline frequency of symptomatic RP attacks.
Subjects were randomized in a 1:1 ratio to iloprost injection for IV use or placebo. Randomization was stratified based on the use of phosphodiesterase inhibitors at screening. Study drug administration began on Day 1, and subjects received study drug for 5 consecutive days (e.g., Monday through Friday) as an IV infusion over 6 hours each day via a peripheral line (NovaCath™ Integrated IV Catheter System) or a peripherally inserted central catheter using an infusion pump.
On Day 1, study drug was initiated at a starting dose of 0.5 ng/kg/min, and dose increases occurred every 30 minutes (+5 minutes) in increments of 0.5 ng/kg/min up to 2.0 ng/kg/min or the individual tolerated dose. If dose-limiting adverse events (e.g., headache, flushing, jaw pain, myalgia, nausea, or vomiting) occurred that could not be tolerated by the subject, or if the subject experienced symptomatic hypotension, then the dose was reduced in a step-wise manner by 0.5 ng/kg/min every 30 minutes (+5 minutes) until a tolerated dose was determined or the infusion was stopped until the symptoms resolved at which point the study drug was reinitiated at a previously tolerated dose. If symptomatic hypotension or a dose-limiting adverse event occurred during administration of iloprost at the starting dose (i.e., 0.5 ng/kg/min), the infusion was reduced to 0.25 ng/kg/min. […]

[2] = Example 1 PK sub-study, plasma iloprost by LC-MS; type: in vivo, human; details: for CLss, Mean (SD): n 1
Experimental: Eligible subjects were given the option to participate in a PK sub-study. Subjects who participated in the sub-study provided plasma samples for PK analysis. The samples were analyzed for iloprost concentrations using validated liquid chromatography mass spectrometry methods.
The following PK parameters were calculated whenever possible, based on the plasma concentrations of iloprost: • Steady state plasma concentration just before infusion was stopped • Area under the plasma concentration versus time curve (AUC) from time of dosing to the last time point with measurable concentration (AUC0-last) • AUC from time 0 extrapolated to infinity (AUC0-inf) • Percentage of AUC obtained by extrapolation (AUCextrape %) • Terminal elimination constant (λz) • Plasma terminal elimination half-life (t½) • Plasma clearance (CL), calculated as dose/AUC0-inf • Volume of distribution (V), calculated as dose/(λz×AUC0-inf) Safety

## CC#CCC(C)[C@H](O)/C=C/[C@@H]1[C@H]2C/C(=C/CCCC(=O)O)C[C@H]2C[C@H]1O (stereo partly drawn) [Iloprost, (5E)-5-[(3aS,4R,5R,6aS)-5-hydroxy-4-[(E,3S)-3-hydroxy-4-methyloct-1-en-6-ynyl]-3,3a,4,5,6,6a-hexahydro-1H-pentalen-2-ylidene]pentanoic acid]
[1]; 11-point NRS (0 to 10), before treatment, N = 17
  Average Overall Severity of Symptomatic RP Attacks, Baseline, Mean: 5.30
[1]; 11-point NRS, p 0.4409
  Average Overall Severity of Symptomatic RP Attacks, Treatment comparison of change vs placebo, LS mean difference in change: −0.47
[1]
  Weekly Frequency of Symptomatic RP Attacks, Treatment comparison of change vs placebo, LS mean difference in change: −0.77
[1]; listed as iloprost
  Weekly Frequency of Symptomatic RP Attacks, Treatment comparison of change vs placebo, LS mean difference in change: not statistically significant
[1]; baseline to double-blind endpoint
  Exploratory endpoints (overall severity, Raynaud's Condition Score, weekly duration, worst symptoms, PGI-S and PGI-C): differences in the iloprost group compared to placebo: not statistically significant
[1]; subgroup Randomization Date After 3 Jun. 2019, p 0.7116
  Weekly Frequency of Symptomatic RP Attacks, Treatment comparison of change vs placebo, LS mean difference in change (treatment effect): 2.04
[2]; Maximum Tolerated Dose Level 1.00 ng/kg/min
  CLss, Mean (SD): 91.22 (NA) L/h
[2]; Maximum Tolerated Dose Level 1.50 ng/kg/min
  CLss, Mean (SD): 6.01 (NA) L/h
[2]; Maximum Tolerated Dose Level 1.50 ng/kg/min, n 2
  Css, Geometric mean (geometric CV %): 32.90 (284.8) pg/mL
[2]; Maximum Tolerated Dose Level 2.00 ng/kg/min
  CLss, Mean (SD): 64.53 (NA) L/h
